In ChEMBL document CHEMBL4819019, “Design, synthesis, antibacterial activity and toxicity of novel quaternary ammonium compounds based on pyridoxine and fatty acids” (Eur J Med Chem, 2021):
One block for each compound: values may come before it.

Experiments:
[1] = test system: Staphylococcus ureilyticus; assay: Antibacterial activity against clinical isolate Staphylococcus ureilyticus 1972 measured after 24 hrs by broth microdilution method; type: functional
Staphylococcus aureus [2] = assay: Antibacterial activity against Staphylococcus aureus ATCC 29213 measured after 24 hrs by broth microdilution method; type: functional
Bacillus subtilis = assay: Antibacterial activity against Bacillus subtilis 168 measured after 24 hrs by broth microdilution method; type: functional
Micrococcus luteus = assay: Antibacterial activity against Micrococcus luteus clinical isolate measured after 24 hrs by broth microdilution method; type: functional
Escherichia coli [3] = assay: Antibacterial activity against Escherichia coli MG 1655 measured after 24 hrs by broth microdilution method; type: functional
Pseudomonas aeruginosa [4] = assay: Antibacterial activity against Pseudomonas aeruginosa ATCC 27853 measured after 24 hrs by broth microdilution method; type: functional
[5] = Cytotoxicity against human HEK293 cells assessed as cell viability measured after 72 hrs by MTT assay; type: cell-based
[6] = Cytotoxicity against human mesenchymal stem cells assessed as cell viability measured after 72 hrs by MTT assay; type: cell-based
[7] = Cytotoxicity against human skin fibroblasts assessed as cell viability measured after 72 hrs by MTT assay; type: cell-based, Fibroblast
[8] = Genotoxicity in Salmonella typhimurium TA1535/pSK1002 assessed as DNA-damage activity by measuring beta-galactosidase activity at 750 ug/ml measured by SOS-chromotest relative to solvent control; type: toxicity; settings: salmonella enterica subsp. enterica serovar typhimurium; dose 750 µg/ml
[9] = Genotoxicity in Salmonella typhimurium TA1535/pSK1002 assessed as DNA-damage activity by measuring beta-galactosidase activity at 150 ug/ml measured by SOS-chromotest relative to solvent control; type: toxicity; settings: salmonella enterica subsp. enterica serovar typhimurium; dose 150 µg/ml
[10] = Genotoxicity in Salmonella typhimurium TA1535/pSK1002 assessed as DNA-damage activity by measuring beta-galactosidase activity at 75 ug/ml measured by SOS-chromotest relative to solvent control; type: toxicity; settings: salmonella enterica subsp. enterica serovar typhimurium; dose 75 µg/ml
[11] = Genotoxicity in Salmonella typhimurium TA1535/pSK1002 assessed as DNA-damage activity by measuring beta-galactosidase activity at 15 ug/ml measured by SOS-chromotest relative to solvent control; type: toxicity; settings: salmonella enterica subsp. enterica serovar typhimurium; dose 15 µg/ml
[12] = Genotoxicity in Salmonella typhimurium TA1535/pSK1002 assessed as DNA-damage activity by measuring beta-galactosidase activity at 7.5 ug/ml measured by SOS-chromotest relative to solvent control; type: toxicity; settings: salmonella enterica subsp. enterica serovar typhimurium; dose 7.5 µg/ml
[13] = Genotoxicity in Salmonella typhimurium TA1535 assessed as number of revertant by Ames spot test relative to solvent control; type: toxicity; settings: salmonella enterica subsp. enterica serovar typhimurium
[14] = Genotoxicity in Salmonella typhimurium TA1537 assessed as number of revertant by Ames spot test relative to solvent control; type: toxicity; settings: salmonella enterica subsp. enterica serovar typhimurium
[15] = Genotoxicity in Salmonella typhimurium TA98 assessed as number of revertant by Ames spot test relative to solvent control; type: toxicity; settings: salmonella enterica subsp. enterica serovar typhimurium
[16] = Genotoxicity in Salmonella typhimurium TA100 assessed as number of revertant by Ames spot test relative to solvent control; type: toxicity; settings: salmonella enterica subsp. enterica serovar typhimurium
Staphylococcus aureus [17] = assay: Antibacterial activity against clinical isolate methicillin-resistant Staphylococcus aureus 713 measured after 24 hrs by broth microdilution method; type: functional
Staphylococcus aureus [18] = assay: Antibacterial activity against clinical isolate methicillin-resistant Staphylococcus aureus 983 measured after 24 hrs by broth microdilution method; type: functional
Staphylococcus aureus [19] = assay: Antibacterial activity against clinical isolate methicillin-resistant Staphylococcus aureus 1053 measured after 24 hrs by broth microdilution method; type: functional
[20] = test system: Staphylococcus intermedius; assay: Antibacterial activity against clinical isolate methicillin-resistant Staphylococcus intermedius 1061 measured after 24 hrs by broth microdilution method; type: functional
Staphylococcus aureus [21] = assay: Antibacterial activity against clinical isolate methicillin-resistant Staphylococcus aureus 1065 measured after 24 hrs by broth microdilution method; type: functional
Staphylococcus aureus [22] = assay: Antibacterial activity against clinical isolate methicillin-resistant Staphylococcus aureus 1131 measured after 24 hrs by broth microdilution method; type: functional
[23] = test system: Staphylococcus intermedius; assay: Antibacterial activity against clinical isolate methicillin-resistant Staphylococcus intermedius 1143 measured after 24 hrs by broth microdilution method; type: functional
Staphylococcus aureus [24] = assay: Antibacterial activity against clinical isolate Staphylococcus aureus 25 measured after 24 hrs by broth microdilution method; type: functional
Enterococcus faecalis [25] = assay: Antibacterial activity against clinical isolate Enterococcus faecalis 23 measured after 24 hrs by broth microdilution method; type: functional
Enterococcus faecalis [26] = assay: Antibacterial activity against clinical isolate Enterococcus faecalis 3063 measured after 24 hrs by broth microdilution method; type: functional
Acinetobacter sp. = assay: Antibacterial activity against clinical isolate Acinetobacter sp. 3 measured after 24 hrs by broth microdilution method; type: functional
Pseudomonas sp. = assay: Antibacterial activity against clinical isolate Pseudomonas sp. 5 measured after 24 hrs by broth microdilution method; type: functional
Klebsiella sp. = assay: Antibacterial activity against clinical isolate Klebsiella sp. 11 measured after 24 hrs by broth microdilution method; type: functional
Proteus sp. = assay: Antibacterial activity against clinical isolate Proteus sp. 17 measured after 24 hrs by broth microdilution method; type: functional; settings: Proteus sp. (in: enterobacteria)
Escherichia coli [27] = assay: Antibacterial activity against clinical isolate Escherichia coli 718 measured after 24 hrs by broth microdilution method; type: functional
Moraxella = assay: Antibacterial activity against clinical isolate Moraxella 765 measured after 24 hrs by broth microdilution method; type: functional
Klebsiella pneumoniae = assay: Antibacterial activity against clinical isolate Klebsiella pneumoniae 1813 measured after 24 hrs by broth microdilution method; type: functional
Pseudomonas aeruginosa [28] = assay: Antibacterial activity against clinical isolate Pseudomonas aeruginosa 1945 measured after 24 hrs by broth microdilution method; type: functional
Serratia marcescens = assay: Antibacterial activity against clinical isolate Serratia marcescens 1966 measured after 24 hrs by broth microdilution method; type: functional
[29] = Lipophilicity, logP of the compound; type: physicochemical; settings: octanol/water

SMILES: CCCCCCCCCCCCCC(=O)NCC[N+](C)(C)Cc1cnc(C)c2c1COC(C)(CCC)O2.[Cl-] (centres undefined)
MIC [1]: > 64 µg/mL | MIC (Staphylococcus aureus [2]): 1 µg/mL | MIC (Bacillus subtilis): 2 µg/mL | MIC (Micrococcus luteus): 1 µg/mL | MIC (Escherichia coli [3]): 32 µg/mL | MIC (Pseudomonas aeruginosa [4]): 8 µg/mL | CC50 at 72 h [5]: 1.16 µg/mL | CC50 at 72 h [6]: 1.38 µg/mL | CC50 at 72 h [7]: 2.15 µg/mL | Ratio [8]: 0.3 | Ratio [9]: 0.5 | Ratio [10]: 0.9 | Ratio [11]: 1.6 | Ratio [12]: 1.5 | Ratio [13]: 0.5 | Ratio [14]: 0.03 | Ratio [15]: 4.4 | Ratio [16]: 0.7 | MIC (Staphylococcus aureus [17]): 2 µg/mL | MIC (Staphylococcus aureus [18]): 16 µg/mL | MIC (Staphylococcus aureus [19]): 1 µg/mL | MIC [20]: 2 µg/mL | MIC (Staphylococcus aureus [21]): 2 µg/mL | MIC (Staphylococcus aureus [22]): 2 µg/mL | MIC [23]: 2 µg/mL | MIC (Staphylococcus aureus [24]): 2 µg/mL | MIC (Enterococcus faecalis [25]): 1 µg/mL | MIC (Enterococcus faecalis [26]): 1 µg/mL | MIC (Acinetobacter sp.): 32 µg/mL | MIC (Pseudomonas sp.): 32 µg/mL | MIC (Klebsiella sp.): 32 µg/mL | MIC (Proteus sp.): > 64 µg/mL | MIC (Escherichia coli [27]): 8 µg/mL | MIC (Moraxella): 16 µg/mL | MIC (Klebsiella pneumoniae): 8 µg/mL | MIC (Pseudomonas aeruginosa [28]): 64 µg/mL | MIC (Serratia marcescens): 64 µg/mL | logP [29]: 2.24

MIC (Staphylococcus aureus [2]): 0.5 µg/mL | MIC (Bacillus subtilis): 2 µg/mL | MIC (Micrococcus luteus): 1 µg/mL | MIC (Escherichia coli [3]): 8 µg/mL | MIC (Pseudomonas aeruginosa [4]): 8 µg/mL | logP [29]: 1.47
SMILES: CCCCCCCCCCCCCC(=O)NCCC[N+](C)(C)Cc1cnc(C)c2c1COC(C)(C)O2.[Cl-]
CC50 at 72 h [5]: 1.61 µg/mL | CC50 at 72 h [6]: 2.21 µg/mL | CC50 at 72 h [7]: 3.14 µg/mL | Ratio [8]: 1 | Ratio [9]: 0.5 | Ratio [10]: 0.7 | Ratio [11]: 1.5 | Ratio [12]: 1.5 | Ratio [13]: 0.4 | Ratio [14]: 0.03 | Ratio [15]: 2.6 | Ratio [16]: 2.5

SMILES: CCCCCCCCCCCCCC(=O)OCC[N+](C)(C)Cc1cnc(C)c2c1COC(C)(C)O2.[Cl-]
MIC [1]: > 64 µg/mL | MIC (Staphylococcus aureus [2]): 0.5 µg/mL | MIC (Bacillus subtilis): 1 µg/mL | MIC (Micrococcus luteus): 0.5 µg/mL | MIC (Escherichia coli [3]): 8 µg/mL | MIC (Pseudomonas aeruginosa [4]): 1 µg/mL | CC50 at 72 h [5]: 0.17 µg/mL | CC50 at 72 h [6]: 1.08 µg/mL | CC50 at 72 h [7]: 1.94 µg/mL | Ratio [8]: 0.4 | Ratio [9]: 0.6 | Ratio [10]: 1.2 | Ratio [11]: 1.6 | Ratio [12]: 1.6 | Ratio [13]: 0.9 | Ratio [14]: 0.02 | Ratio [15]: 4.6 | Ratio [16]: 1.4 | MIC (Staphylococcus aureus [17]): 8 µg/mL | MIC (Staphylococcus aureus [18]): 64 µg/mL | MIC (Staphylococcus aureus [19]): 8 µg/mL | MIC [20]: 8 µg/mL | MIC (Staphylococcus aureus [21]): 8 µg/mL | MIC (Staphylococcus aureus [22]): 16 µg/mL | MIC [23]: 8 µg/mL | MIC (Staphylococcus aureus [24]): 8 µg/mL | MIC (Enterococcus faecalis [25]): 4 µg/mL | MIC (Enterococcus faecalis [26]): 4 µg/mL | MIC (Acinetobacter sp.): 64 µg/mL | MIC (Pseudomonas sp.): 64 µg/mL | MIC (Klebsiella sp.): 64 µg/mL | MIC (Proteus sp.): > 64 µg/mL | MIC (Escherichia coli [27]): 32 µg/mL | MIC (Moraxella): 64 µg/mL | MIC (Klebsiella pneumoniae): 64 µg/mL | MIC (Pseudomonas aeruginosa [28]): 64 µg/mL | MIC (Serratia marcescens): 64 µg/mL | logP [29]: 2.14
